In brackets after ≈: the same amount, converted by molar mass. Marks after values point to notes of the source that are not given here.
How the values were obtained:
[1] = tested on: AI-2 activity of APEC O35; test: AI-2 bioluminescence indicator assay (V. harveyi BB170); settings: APEC O35, 100 µM
Rif^r APEC O78 [2] = test: Wax moth (Galleria mellonella) larva infection model (AI-2 inhibitors); settings: 72 h post treatment
AI-2 activity of APEC O1 = test: AI-2 bioluminescence indicator assay (V. harveyi BB170); settings: APEC O1, 100 µM
[3] = tested on: AI-2 activity of APEC O115; test: as above; settings: APEC O115, 100 µM
AI-2 activity of APEC O8 = test: as above; settings: APEC O8, 100 µM
[4] = tested on: AI-2 activity of APEC O78; test: as above; settings: APEC O78, 100 µM
[5] = tested on: AI-2 activity of APEC O15; test: as above; settings: APEC O15, 100 µM
[6] = tested on: AI-2 activity of APEC O109; test: as above; settings: APEC O109, 100 µM
AI-2 activity of APEC O2 = test: as above; settings: APEC O2, 100 µM
[7] = tested on: AI-2 activity of APEC O18; test: as above; settings: APEC O18, 100 µM
Rif^r APEC O78 [8] = test: In vivo screening of quorum sensing inhibitors in APEC infected broiler chickens
APEC O78 [9] = test: Loss of 260/280 nm absorbing materials assay; format: cell-based, avian pathogenic Escherichia coli (APEC); settings: 2X MBC, 1 h, *P<0.05 vs DMSO; for Absorbance 260: 260 nm absorbing material in supernatant; for Absorbance 280: 280 nm absorbing material in supernatant
APEC O2-211 = format: cell-based, avian pathogenic Escherichia coli (APEC); settings: APEC O2-211, M63 media; MIC/MBC
APEC O1 = format: cell-based, avian pathogenic Escherichia coli (APEC); settings: APEC O1, M63 media; MIC/MBC
[10] = tested on: intracellular APEC O1 in THP-1 cells; test: Intracellular survival assay (cidal SMs); settings: O1, THP-1, 6 h treatment; superscript = multiple of MIC
APEC O78 [11] = format: cell-based, avian pathogenic Escherichia coli (APEC)
[12] = tested on: biofilm embedded APEC O78; test: MBEC High-throughput assay; format: cell-based, avian pathogenic Escherichia coli (APEC); settings: biofilm embedded APEC O78; superscript = multiple of MIC (footnote)
Experimental: Effect against biofilm embedded APEC. The effect of cidal SMs against biofilm embedded APEC was determined using MBEC High-throughput (HTP) assay (Innovotech Inc., AB, Canada). Briefly, 150 µL of 0.05 OD600 adjusted APEC O78 culture was aliquoted into each well of the MBEC device containing polystyrene pegs and incubated at 37° C. for 36 h in LB media under stationary condition. […] The plate was incubated in the dark for 18 h at 37° C. with rotation at 110 rpm. The DMSO (1%) and M63 media were used as positive and negative controls, respectively. Following incubation, MIC of SMs in challenged plate was recorded. The SMs exposed pegs were then transferred to a new 96-well plate containing PBS and sonicated for 30 mins (Aquasonic ultrasonic cleaner, VWR) to disrupt the biofilm. […] Biofilm embedded APEC bacteria were enumerated and minimum biofilm eradication concentration (MBEC) of […] were determined. Two independent experiments were conducted.

[13] = tested on: intracellular APEC O78 in Caco-2 cells; test: Intracellular survival assay (cidal SMs); settings: O78, Caco-2, 6 h treatment; superscript = multiple of MIC
[14] = tested on: intracellular APEC O78 in THP-1 cells; test: Intracellular survival assay (cidal SMs); settings: O78, THP-1, 6 h treatment; superscript = multiple of MIC
APEC O8 = format: cell-based, avian pathogenic Escherichia coli (APEC); settings: APEC O8, M63 media; MIC/MBC
APEC O78 [15] = test: Confocal microscopy bacterial cytological profiling; format: cell-based, avian pathogenic Escherichia coli (APEC); settings: 2X MBC
Experimental: Confocal and scanning electron microscopy. Confocal microscopy was used for bacterial cytological profiling (BCP) to identify the cellular pathways targeted by SMs as described previously. […] After incubation, treated cultures were centrifuged, washed, and resuspended in 100 μL PBS. […] Cultures were then centrifuged, washed, and resuspended in PBS to 1⁄10th volume of the original cultures.

Rif^r APEC O78 [16] = test: In vivo efficacy of growth inhibitors in APEC infected broiler chickens
APEC O115 = format: cell-based, avian pathogenic Escherichia coli (APEC); settings: APEC O115, M63 media; MIC/MBC
APEC O2 = format: cell-based, avian pathogenic Escherichia coli (APEC); settings: APEC O2, M63 media; MIC/MBC
APEC O1-63 = format: cell-based, avian pathogenic Escherichia coli (APEC); settings: APEC O1-63, M63 media; MIC/MBC
APEC O15 = format: cell-based, avian pathogenic Escherichia coli (APEC); settings: APEC O15, M63 media; MIC/MBC
[17] = tested on: intracellular APEC O78 in HD11 cells; test: Intracellular survival assay (cidal SMs); settings: O78, HD11, 6 h treatment; superscript = multiple of MIC
[18] = tested on: intracellular APEC O2 in THP-1 cells; test: Intracellular survival assay (cidal SMs); settings: O2, THP-1, 6 h treatment; superscript = multiple of MIC
APEC O78-53 = format: cell-based, avian pathogenic Escherichia coli (APEC); settings: APEC O78-53, M63 media; MIC/MBC
[19] = tested on: intracellular APEC O1 in HD11 cells; test: Intracellular survival assay (cidal SMs); settings: O1, HD11, 6 h treatment; superscript = multiple of MIC
APEC O35 = format: cell-based, avian pathogenic Escherichia coli (APEC); settings: APEC O35, M63 media; MIC/MBC
APEC O109 = format: cell-based, avian pathogenic Escherichia coli (APEC); settings: APEC O109, M63 media; MIC/MBC
[20] = tested on: intracellular APEC O2 in Caco-2 cells; test: Intracellular survival assay (cidal SMs); settings: O2, Caco-2, 6 h treatment; superscript = multiple of MIC
[21] = tested on: intracellular APEC O2 in HD11 cells; test: Intracellular survival assay (cidal SMs); settings: O2, HD11, 6 h treatment; superscript = multiple of MIC
[22] = tested on: intracellular APEC O1 in Caco-2 cells; test: Intracellular survival assay (cidal SMs); settings: O1, Caco-2, 6 h treatment; superscript = multiple of MIC
APEC O18 = format: cell-based, avian pathogenic Escherichia coli (APEC); settings: APEC O18, M63 media; MIC/MBC

## O=C(CCN1CCN(c2ccccc2F)CC1)Nc1ccc(Br)cc1 [C7, N-(4-bromophenyl)-3-[4-(2-fluomphenyl)-1-piperazinyl]propanamide]
[1]
  Inhibition % of AI-2 activity: 62%
Rif^r APEC O78 [2]
  larval death: no larval death
AI-2 activity of APEC O1
  Inhibition % of AI-2 activity: 47%
[3]
  Inhibition % of AI-2 activity: 45%
AI-2 activity of APEC O8
  Inhibition % of AI-2 activity: 2%
[4]
  Inhibition % of AI-2 activity: 94%
[5]
  Inhibition % of AI-2 activity: 36%
[6]
  Inhibition % of AI-2 activity: 67%
AI-2 activity of APEC O2
  Inhibition % of AI-2 activity: 83%
[7]
  Inhibition % of AI-2 activity: 48%
Rif^r APEC O78 [8]; DMSO control mortality normalized to 100%
  reduction in chicken mortality: did not reduce
Rif^r APEC O78 [8]; oral gavage once a day, day 4 to day 8, DMSO control 66.7%
  Mortality rate (%): 66.7%
Rif^r APEC O78 [8]; vs DMSO treated control
  Reduction in APEC lesions severity, Air-sacs (%): 33.3%
  Reduction in APEC lesions severity, Heart (%): 33.3%
  Reduction in APEC lesions severity, Liver (%): 33.3%
  Reduction in APEC lesions severity, Lung (%): 83.3%

## O=C(O)CN(CCN(CC(=O)O)CC(=O)O)CC(=O)O [EDTA, reference compound]
APEC O78 [9]
  Absorbance 260: 4.00*
  Absorbance 280: 2.60

## COc1cc(CNCCc2ccc(C)cc2)ccc1OCC(O)CN1CCCC1 (stereo not drawn) [SM3]
APEC O2-211
  MBC: 100 µM (≈ 39.9 µg/mL)
  MIC: 100 µM (≈ 39.9 µg/mL)
APEC O1
  MBC: 200 µM (≈ 79.7 µg/mL)
  MIC: 100 µM (≈ 39.9 µg/mL)
[10]
  SMs intracellular APEC clearance concentration: 200^b µM
APEC O78 [11]; APEC O78
  MBC relative to MIC: identical to MIC
APEC O78 [11]; APEC O78, M63 media, MIC/MBC
  MIC: 100 µM (≈ 39.9 µg/mL)
APEC O78 [11]; APEC O78, M63 media, cell prints MIC/MBC
  MBC: 100 µM (≈ 39.9 µg/mL)
[12]
  MBEC: 50^b µM
[13]
  SMs intracellular APEC clearance concentration: 100^a µM
[14]
  SMs intracellular APEC clearance concentration: 100^a µM
APEC O8
  MBC: 100 µM (≈ 39.9 µg/mL)
  MIC: 100 µM (≈ 39.9 µg/mL)
APEC O78 [15]
  cytological profile (confocal, FM4-64 / SYTO-9): membrane pore formers
Rif^r APEC O78 [16]; average of liver, heart, lung and kidney, vs untreated control
  reduction of average APEC load in internal organs: either exacerbated or did not reduce
Rif^r APEC O78 [16]; untreated control = 100%
  reduction of APEC lesions severity (%), Air-sacs (airsacculitis): -29.4%
  reduction of APEC lesions severity (%), Heart (pericarditis): 4%
  reduction of APEC lesions severity (%), Liver (perihepatitis): -20%
  reduction of APEC lesions severity (%), Lung (lung congestion): 0%
Rif^r APEC O78 [16]; vs untreated control
  reduction of APEC load, Heart: -2.1 log CFU/g of tissues
  reduction of APEC load, Kidney: -1.4 log CFU/g of tissues
  reduction of APEC load, Liver: -1.8 log CFU/g of tissues
  reduction of APEC load, Lung: -2.0 log CFU/g of tissues
Rif^r APEC O78 [16]; weight of live chickens before necropsy minus weight before treatment
  Body weight gain (BWG): 254.58±95.03
APEC O78 [9]
  Absorbance 260: 3.77
  Absorbance 280: 2.84*
APEC O115
  MBC: 100 µM (≈ 39.9 µg/mL)
  MIC: 100 µM (≈ 39.9 µg/mL)
APEC O2
  MBC: 200 µM (≈ 79.7 µg/mL)
  MIC: 100 µM (≈ 39.9 µg/mL)
APEC O1-63
  MBC: 200 µM (≈ 79.7 µg/mL)
  MIC: 200 µM (≈ 79.7 µg/mL)
APEC O15
  MBC: 100 µM (≈ 39.9 µg/mL)
  MIC: 100 µM (≈ 39.9 µg/mL)
[17]
  SMs intracellular APEC clearance concentration: 100^a µM
[18]
  SMs intracellular APEC clearance concentration: 100^a µM
APEC O78-53
  MBC: 200 µM (≈ 79.7 µg/mL)
  MIC: 100 µM (≈ 39.9 µg/mL)
[19]
  SMs intracellular APEC clearance concentration: 200^b µM
APEC O35
  MBC: 200 µM (≈ 79.7 µg/mL)
  MIC: 100 µM (≈ 39.9 µg/mL)
APEC O109
  MBC: 200 µM (≈ 79.7 µg/mL)
  MIC: 100 µM (≈ 39.9 µg/mL)
[20]
  SMs intracellular APEC clearance concentration: >200 µM
[21]
  SMs intracellular APEC clearance concentration: 200^b µM
[22]
  SMs intracellular APEC clearance concentration: >200 µM
APEC O18
  MBC: 100 µM (≈ 39.9 µg/mL)
  MIC: 100 µM (≈ 39.9 µg/mL)

From patent US20230355597A1, “COMPOUNDS, COMPOSITIONS, AND METHODS FOR THE TREATMENT AND PREVENTION OF AVIAN PATHOGENIC E. COLI (APEC)” (OHIO STATE INNOVATION FOUNDATION, priority 2018, published 2023)
